Values quoted from earlier work in patent publication US8524198B2, “Xylitol dental maintenance system” (priority 2003, dated 2013).

Key:
[1] = 976 children aged 6-12 years, 2 years; for 2-year DMFS increment: partial substitution of sucrose by xylitol (X group) vs systemic fluoride (F group)
oral microorganisms = details: pure cultures of oral microorganisms in vitro
dental plaque = dental plaque in vivo
[2] = 3-year field study; partial substitution of sucrose by xylitol (X group)

Structure (SMILES) | ratio (RS) between caries incidence and the tooth surface population at risk [1] | 2-year DMFS increment [1] | metabolized into acids (oral microorganisms) | metabolized into acids (dental plaque) | oral hygiene conditions, final vs base-line [2]
F [fluoride] | 5.5 | 4.8 | – | – | –
OC[C@@H](O)[C@H](O)[C@@H](O)CO [xylitol] | 4.5 | 3.8 | not metabolized into acids | not metabolized into acids | definite improvement
